Assay results taken from patent US20130252944A1, “NOVEL FUSED PYRAZOLE DERIVATIVES AND THEIR USE AS ALLOSTERIC MODULATORS OF METABOTROPIC GLUTAMATE RECEPTORS” (priority 2010, published 2013).
pEC50: −log10 of the molar value.

These compounds were tested against T1, recombinant human mGluR4a receptors (Homo sapiens, UniProt Q14833) (assay: Fluorescent cell based Ca2+ mobilization assay (FLIPR) on HEK-293 cells expressing human mGluR4). Conditions: positive allosteric modulation in presence of EC25 glutamate; HEK-293 hmGluR4; mean of at least three independent experiments in duplicate; read-out: Ca^2+ Flux (mean EC50).
T1 construct: expressed in transfected cells
T1 sequence (Q14833 33-912): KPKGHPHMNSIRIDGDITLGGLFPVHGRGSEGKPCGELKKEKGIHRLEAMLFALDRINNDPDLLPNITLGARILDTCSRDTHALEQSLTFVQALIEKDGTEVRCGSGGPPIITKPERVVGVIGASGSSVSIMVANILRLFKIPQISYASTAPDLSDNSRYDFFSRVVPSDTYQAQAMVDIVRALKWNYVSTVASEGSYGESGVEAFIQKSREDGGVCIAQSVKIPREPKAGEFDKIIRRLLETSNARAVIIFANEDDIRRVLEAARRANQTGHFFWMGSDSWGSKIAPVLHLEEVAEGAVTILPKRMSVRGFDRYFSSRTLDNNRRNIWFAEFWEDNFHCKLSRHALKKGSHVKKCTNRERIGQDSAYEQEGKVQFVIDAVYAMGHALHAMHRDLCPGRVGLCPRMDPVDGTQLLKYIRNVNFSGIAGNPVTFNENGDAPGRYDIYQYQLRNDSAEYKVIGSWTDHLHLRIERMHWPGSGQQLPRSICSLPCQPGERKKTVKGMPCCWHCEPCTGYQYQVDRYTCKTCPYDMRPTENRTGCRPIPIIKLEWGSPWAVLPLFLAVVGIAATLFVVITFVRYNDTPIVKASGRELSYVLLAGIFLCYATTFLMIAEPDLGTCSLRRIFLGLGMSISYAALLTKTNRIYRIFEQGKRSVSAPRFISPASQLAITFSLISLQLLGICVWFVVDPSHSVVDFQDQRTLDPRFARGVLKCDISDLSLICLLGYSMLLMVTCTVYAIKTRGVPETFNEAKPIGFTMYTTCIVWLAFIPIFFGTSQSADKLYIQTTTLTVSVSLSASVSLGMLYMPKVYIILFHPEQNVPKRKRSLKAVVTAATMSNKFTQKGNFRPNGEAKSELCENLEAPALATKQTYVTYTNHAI
Description: mGluR4 Assay on HEK-Expressing Human mGluR4
The compounds of the present invention are positive allosteric modulators of mGluR4 receptor. Their activity was examined on recombinant human mGluR4a receptors by detecting changes in intracellular Ca^2+concentration, using the fluorescent Ca^2+-sensitive dye Fluo4-(AM) and a Fluorometric Imaging Plate Reader (FLIPR, Molecular Devices, Sunnyvale, Calif.).
The cDNA encoding the human metabotropic glutamate receptor (hmGluR4), (accession number NM_000841.1, NCBI Nucleotide database browser), was subcloned into an expression vector containing also the hygromycin resistance gene. In parallel, the cDNA encoding a G protein allowing redirection of the activation signal to intracellular calcium flux was subcloned into a different expression vector containing also the puromycin resistance gene. Transfection of both these vectors into HEK293 cells with PolyFect reagent (Qiagen) according to supplier's protocol, and hygromycin and puromycin treatment allowed selection of antibiotic resistant cells which had integrated stably one or more copies of the plasmids. Positive cellular clones expressing hmGluR4 were identified in a functional assay measuring changes in calcium fluxes in response to glutamate or selective known mGluR4 orthosteric agonists and antagonists.
HEK-293 cells expressing hmGluR4 were maintained in media containing DMEM, dialyzed Fetal Calf Serum (10%), Glutamax™ (2 mM), Penicillin (100 units/mL), Streptomycin (100 μg/mL), Geneticin (100 μg/mL) and Hygromycin-B (40 μg/mL) and puromycin (1 μg/mL) at 37° C./5% CO2.
Human mGluR4 HEK-293 cells were plated out 24 hours prior to FLIPR^384 assay in black-walled, clear-bottomed, poly-L-ornithine-coated 384-well plates at a density of 25,000 cells/well in a glutamine/glutamate free DMEM medium containing foetal bovine serum (10%), penicillin (100 units/mL) and streptomycin (100 μg/mL) at 37° C./5% CO2.
On the day of the assay, the medium was aspirated and the cells were loaded with a 3 μM solution of Fluo4-AM (LuBioScience, Lucerne, Switzerland) in 0.03% pluronic acid. After 1 hour at 37° C./5% CO2, the non incorporated dye was removed by washing cell plate with the assay buffer and the cells were left in the dark at room temperature for […] before testing. All assays were performed in a pH=7.4 buffered-solution containing 20 mM HEPES, 143 mM NaCl, 6 mM KCl, 1 mM MgSO4, 1 mM CaCl2, 0.125 mM sulfapyrazone and 0.1% glucose.
After 10 s of basal fluorescence recording, various concentrations of the compounds of the invention were added to the cells. Changes in fluorescence levels were first monitored for 180 s in order to detect any agonist activity of the compounds. Then the cells were stimulated by an EC25 glutamate concentration for an additional 110 s in order to measure enhancing activities of the compounds of the invention. EC25 glutamate concentration is the concentration giving 25% of the maximal glutamate response.
The concentration-response curves of representative compounds of the present invention were generated using the Prism GraphPad software (Graph Pad Inc, San Diego, USA). The curves were fitted to a four-parameter logistic equation:
(Y=Bottom+(Top−Bottom)/(1+10̂((LogEC50−X)*Hill Slope)
allowing the determination of EC50 values.
The Table 3 below represents the mean EC50 obtained from at least three independent experiments of selected molecules performed in duplicate.

Row | pEC50 | Compound
1 | > 7.00 | CC(C)C1OCc2sc(Nc3ncc(F)cn3)nc2-c2cn[nH]c21 (stereo not shown) [Compound 1-28, (5-Fluoro-pyrimidin-2-yl)-(6-isopropyl-6,7-dihydro-4H-5-oxa-3-thia-1,7,8-triaza-cyclopenta[e]azulen-2-yl)-amine]
2 | 5.00 to 6.00 | Cc1cc2[nH]ncc2c2nc(Nc3ccccn3)sc12 [Compound 1-1, (4-Methyl-6H-3-thia-1,6,7-triaza-as-indacen-2-yl)-pyridin-2-yl-amine]
3 | 6.00 to 7.00 | Cc1ccnc(Nc2nc3c(s2)CC(C)Cc2n[nH]cc2-3)n1 (stereo not shown) [Compound 1-11, (4-Methyl-pyrimidin-2-yl)-(5-methyl-4,5,6,8-tetrahydro-3-thia-1,7,8-triaza-cyclopenta[e]azulen-2-yl)-amine]
4 | 6.00 to 7.00 | Cc1ccnc(Nc2nc3c(s2)CC(C)(C)C(F)(F)c2[nH]ncc2-3)n1 [Compound 1-9, (6,6-Difluoro-5,5-dimethyl-4,5,6,7-tetrahydro-3-thia-1,7,8-triaza-cyclopenta[e]azulen-2-yl)-(4-methyl-pyrimidin-2-yl)-amine]
5 | > 7.00 | Cc1ccnc(Nc2nc3c(s2)CC(F)(F)Cc2n[nH]cc2-3)n1 [Compound 1-18, (5,5-Difluoro-4,5,6,8-tetrahydro-3-thia-1,7,8-triaza-cyclopenta[e]azulen-2-yl)-(4-methyl-pyrimidin-2-yl)-amine]
6 | > 7.00 | Cc1ccnc(Nc2nc3c(s2)COC(c2ccccn2)c2[nH]ncc2-3)n1 (stereo not shown) [Compound 1-31, (4-Methyl-pyrimidin-2-yl)-(6-pyridin-2-yl-6,7-dihydro-4H-5-oxa-3-thia-1,7,8-triaza-cyclopenta[e]azulen-2-yl)-amine]
7 | 5.00 to 6.00 | Cc1nc(Nc2nc3c(s2)C(=O)CCc2n[nH]cc2-3)ncc1F [Compound 1-30, 2-(5-Fluoro-4-methyl-pyrimidin-2-ylamino)-6,8-dihydro-5H-3-thia-1,7,8-triaza-cyclopenta[e]azulen-4-one]
8 | > 7.00 | Cc1ccnc(Nc2nc3c(s2)COC(C(F)(F)F)c2n[nH]cc2-3)n1 (stereo not shown) [Compound 1-13, (4-Methyl-pyrimidin-2-yl)-(6-trifluoromethyl-6,8-dihydro-4H-5-oxa-3-thia-1,7,8-triaza-cyclopenta[e]azulen-2-yl)-amine]
9 | 6.00 to 7.00 | (6-Isopropyl-6,7-dihydro-4H-5-oxa-3-thia-1,7,8-triaza-cyclopenta[e]azulen-2-yl)-(5-methyl-[1,2,4]thiadiazol-3-yl)-amine [Compound 1-25]
10 | > 7.00 | COC1CCc2sc(Nc3nccc(C)n3)nc2-c2cn[nH]c21 (stereo not shown) [Compound 1-24, (6-Methoxy-4,5,6,7-tetrahydro-3-thia-1,7,8-triaza-cyclopenta[e]azulen-2-yl)-(4-methyl-pyrimidin-2-yl)-amine]
11 | 6.00 to 7.00 | COC1Cc2n[nH]cc2-c2nc(Nc3nccc(C)n3)sc2C1 (stereo not shown) [Compound 1-15, (5-Methoxy-4,5,6,8-tetrahydro-3-thia-1,7,8-triaza-cyclopenta[e]azulen-2-yl)-(4-methyl-pyrimidin-2-yl)-amine]
12 | > 7.00 | COc1ccnc(Nc2nc3c(s2)COC(C)c2[nH]ncc2-3)n1 (stereo not shown) [Compound 1-14, (4-Methoxy-pyrimidin-2-yl)-(6-methyl-6,7-dihydro-4H-5-oxa-3-thia-1,7,8-triaza-cyclopenta[e]azulen-2-yl)-amine]
13 | 5.00 to 6.00 | Cc1ccnc(Nc2nc3c(s2)C(C)(C)OC(C)c2n[nH]cc2-3)n1 (stereo not shown) [Compound 1-2, (4-Methyl-pyrimidin-2-yl)-(4,4,6-trimethyl-6,8-dihydro-4H-5-oxa-3-thia-1,7,8-triaza-cyclopenta[e]azulen-2-yl)-amine]
14 | 6.00 to 7.00 | Cc1ccnc(Nc2nc3c(s2)C(C)(C)OCc2n[nH]cc2-3)n1 [Compound 1-4, (4,4-Dimethyl-6,8-dihydro-4H-5-oxa-3-thia-1,7,8-triaza-cyclopenta[e]azulen-2-yl)-(4-methyl-pyrimidin-2-yl)-amine]
15 | > 7.00 | CCC1OCc2sc(Nc3ncc(F)c(C)n3)nc2-c2cn[nH]c21 (stereo not shown) [Compound 1-21, (6-Ethyl-6,7-dihydro-4H-5-oxa-3-thia-1,7,8-triaza-cyclopenta[e]azulen-2-yl)-(5-fluoro-4-methyl-pyrimidin-2-yl)-amine]
16 | 6.00 to 7.00 | CC(C)C1OCc2sc(Nc3cccc(F)n3)nc2-c2cn[nH]c21 (stereo not shown) [Compound 1-26, (6-Fluoro-pyridin-2-yl)-(6-isopropyl-6,7-dihydro-4H-5-oxa-3-thia-1,7,8-triaza-cyclopenta[e]azulen-2-yl)-amine]
17 | 6.00 to 7.00 | Cc1ccnc(Nc2nc3c(s2)CCCCc2[nH]ncc2-3)n1 [Compound 1-7, (4-Methyl-pyrimidin-2-yl)-(5,6,7,8-tetrahydro-4H-3-thia-1,8,9-triaza-dicyclopenta[a,c]cycloocten-2-yl)-amine]
18 | 6.00 to 7.00 | CCCC1Cc2sc(Nc3nccc(C)n3)nc2-c2cn[nH]c21 (stereo not shown) [Compound 1-5, (4-Methyl-pyrimidin-2-yl)-(5-propyl-5,6-dihydro-4H-3-thia-1,6,7-triaza-as-indacen-2-yl)-amine]
19 | > 7.00 | CCC1OCc2sc(Nc3nsc(C)n3)nc2-c2c[nH]nc21 (stereo not shown) [Compound 1-20, (6-Ethyl-6,8-dihydro-4H-5-oxa-3-thia-1,7,8-triaza-cyclopenta[e]azulen-2-yl)-(5-methyl-[1,2,4]thiadiazol-3-yl)-amine]
20 | > 7.00 | Cc1ccnc(Nc2nc3c(s2)CCOc2n[nH]cc2-3)n1 [Compound 1-17, (4,8-Dihydro-5H-6-oxa-3-thia-1,7,8-triaza-cyclopenta[e]azulen-2-yl)-(4-methyl-pyrimidin-2-yl)-amine]
21 | > 7.00 | CCC1OCc2sc(Nc3nccc(C)n3)nc2-c2c[nH]nc21 (stereo not shown) [Compound 1-8, (6-Ethyl-6,8-dihydro-4H-5-oxa-3-thia-1,7,8-triaza-cyclopenta[e]azulen-2-yl)-(4-methyl-pyrimidin-2-yl)-amine]
22 | > 7.00 | CCC1OCc2sc(Nc3nccc(OC)n3)nc2-c2cn[nH]c21 (stereo not shown) [Compound 1-22, (6-Ethyl-6,7-dihydro-4H-5-oxa-3-thia-1,7,8-triaza-cyclopenta[e]azulen-2-yl)-(4-methoxy-pyrimidin-2-yl)-amine]
23 | > 7.00 | CCC1OCc2sc(Nc3ncc(F)cn3)nc2-c2c[nH]nc21 (stereo not shown) [Compound 1-19, (6-Ethyl-6,8-dihydro-4H-5-oxa-3-thia-1,7,8-triaza-cyclopenta[e]azulen-2-yl)-(5-fluoro-pyrimidin-2-yl)-amine]
24 | > 7.00 | Cc1ccnc(Nc2nc3c(s2)COC(C(C)C)c2n[nH]cc2-3)n1 (stereo not shown) [Compound 1-16, (6-Isopropyl-6,8-dihydro-4H-5-oxa-3-thia-1,7,8-triaza-cyclopenta[e]azulen-2-yl)-(4-methyl-pyrimidin-2-yl)-amine]
25 | 6.00 to 7.00 | Cc1ccnc(Nc2nc3c(s2)CCC(C(F)(F)F)c2[nH]ncc2-3)n1 (stereo not shown) [Compound 1-27, (4-Methyl-pyrimidin-2-yl)-(6-trifluoromethyl-4,5,6,7-tetrahydro-3-thia-1,7,8-triaza-cyclopenta[e]azulen-2-yl)-amine]
26 | > 7.00 | Cc1ccnc(Nc2nc3c(s2)CCC(C)c2n[nH]cc2-3)n1 (stereo not shown) [Compound 1-12, (4-Methyl-pyrimidin-2-yl)-(6-methyl-4,5,6,8-tetrahydro-3-thia-1,7,8-triaza-cyclopenta[e]azulen-2-yl)-amine]
27 | > 7.00 | CC1OCc2sc(Nc3cccc(F)n3)nc2-c2c[nH]nc21 (stereo not shown) [Compound 1-23, (6-Fluoro-pyridin-2-yl)-(6-methyl-6,8-dihydro-4H-5-oxa-3-thia-1,7,8-triaza-cyclopenta[e]azulen-2-yl)-amine]

Row | Compound | pEC50
28 | Dimethyl-carbamic acid 2-(4-methyl-pyrimidin-2-ylamino)-4,5,6,6a,7,8-hexahydro-3-thia-1,7,8-triaza-cyclopenta[e]azulen-5-yl ester [Compound 1-6] | 6.00 to 7.00
